Where two headings read alike, the source gives them in different places.
Assays:
[1] = Method: High concentrations permit reduced administration times (important for patient compliance), but suffer in that their associated osmolality and intense taste may mitigate this advantage. […] Nebulized solutions were inhaled to a shallow throat level and analyzed for: taste (saltiness), throat irritation, and sore throat. […] Sodium chloride is also considered in the art as helpful to alleviate cough. Therefore, this was also tested.
Summary. […] Finally, because viscosity and surface tension can be important contributors to optimal I-neb (Respironics, Inc., Murrysville, Pa.), Aerogen Aeroneb Go (Aerogen, Inc., Galway, Ireland) or other vibrating mesh nebulizer performance, potential formulations were screened in these devices to measure the effect of formulation on device output rate and aerosol particle size.

Sprague-Dawley rats = experiment: 7-day inhalation dose range finding toxicology, rat
Method: Formulations. […] The formulations defined below were titrated by nebulization time to achieve the dose levels define in Table 21.
Results & Discussion (Rats). A 7-Day range-finding study with nebulized Formulation I Inhalation Solution was performed via inhalation through the nose of male and female Sprague-Dawley rats.

beagle dogs = experiment: 7-day inhalation dose range finding toxicology, dog; format: in vivo
Method: Results & Discussion (Dogs). […] Dogs were exposed to either vehicle (citric acid/saccharin/sodium phosphate buffer), or Formulation I Inhalation Solution prepared in identical vehicle to achieve target doses of 2, 10 or 44 mg/kg/day for 7 days (Table 21). Administered doses were 2, 12 and 54 mg/kg/day. […] Methemoglobin levels in blood increased appreciably in the high-dose group and minimally above basal levels in the mid-dose group (Table 23). Gross necropsies of the treated groups were in general similar to controls which included the presence of small red foci in the lung area, were few in nature and not associated with a dose responsive test-article relationship. Histopathology included mild focal pneumonia with minimal to mild focal peribronchiolar/perivascular mononuclear cell infiltrate and minimal to mild focal alveolar mixed cell infiltrate in the lungs of both the vehicle and high dose groups (low- and mid-dose groups not examined). M/E ratios were decreased in high-dose group males. […] Therefore, based on the transient changes during this 7 day study, an NOAEL of 12 mg/kg/day was established.

in vivo [2] = settings: rat, plasma
Method: Rats (n=3-4/group, ˜400 gm) were anesthetized with Isoflorane and the dry powder was insufflated intratracheally using a Penn-Century Insufflator (model DP-4: Philadelphia, Pa.). Blood was collected in heparinized tubes just prior to dosing, 5, 15, 30 and 60 minutes after dosing, immediately put on wet ice and then centrifuged at 13,000 rpm in a microcentrifuge for 45 sec. Plasma was harvested and frozen at −80° C. until analysis.

[3] = test system: monocrotaline-induced pulmonary hypertension; settings: for RV:LV + S: MCT 50 mg/kg sc, three times per week for four weeks
[4] = test system: normal, healthy volunteers; settings: human, device loaded sodium nitrite
Method: Vial 3 contained 0.1 mM sodium phosphate only. In the preliminary dose escalation to the maximum tolerated dose (MTD), immediately prior to administration, an equal portion of Vial 1 and Vial 2 were admixed and then diluted with Vial 3 contents as appropriate to achieve lower concentration dosing solutions for the dose-escalation protocol. Following establishment of the Vial 1+Vial 2 admixed test material MTD, additional dosing cohorts of 3 subjects were enrolled at the Vial 1+Vial 2 MTD, using Vial 3-diluted Vial 1 contents only.
Each subject also received vehicle control. The nebulizer used for this study was the Aerogen Idehaler. The Aerogen Idehaler is a combination of two units. The nebulization head is the Aeroneb® Solo (Aerogen, Galway, Ireland) and the aerosol-reservoir attachment Idehaler™ (Diffusion Technique Francais, Saint Etienne, France).

in vivo [5] = settings: male, Sprague-Dawley, rat, plasma, 10 mg/kg; for half-life: T1/2, rat
[6] = test system: hypoxia-induced pulmonary hypertension; settings: cited from earlier work
[7] = test system: monocrotaline-induced pulmonary hypertension; experiment: Monocrotaline model of pulmonary hypertension, inhaled nebulized liquid sodium nitrite; settings: rat, 5 μg/kg liquid aerosol
[8] = 101 mg/kg/day inhaled (dose lowered after day 1)
[9] = high dose group after lowering of dose, printed (76)
[10] = inhaled or intranasal, 90 ug/kg
[11] = inhaled or intranasal, 700 ug/kg
[12] = inhaled or intranasal, IT (dry powder, normalized to 10 mg/kg)
[13] = inhaled or intranasal, IT (liquid, 10 mg/kg)

O=NO [sodium nitrite]
level of nitric oxide produced ([1]; 75 mg/mL sodium nitrite, 1.56 mM citric acid, […] sodium saccharin, pH 5.41 admixed dosing solution): ~200 parts per billion | nitric oxide produced and released ([1]; aqueous sodium nitrite titrated with citric acid): ~200 parts per billion | nitric oxide relative to same formulation lacking ascorbic acid ([1]; citric acid, pH ~5.5, 1:256 molar ratio ascorbic acid to nitrite): ~4 fold | nitric oxide produced and released upon vibrating mesh nebulization ([1]; nitrite:ascorbic acid 256:1 mixture, Aeroneb Go Lab): ~800 ppb | level of nitric oxide produced ([1]; same dosing solution in the absence of citric acid): ~150 parts per billion | level of nitric oxide produced ([1]; same formulation with ascorbic acid): ~800 parts per billion | Mortality (%) Female (Sprague-Dawley rats; 4 mg/kg/day inhaled): 0% | Mortality (%) Male (Sprague-Dawley rats; 4 mg/kg/day inhaled): 0% | Peak MetHgb (%) On Day 1 Female (Sprague-Dawley rats; 4 mg/kg/day inhaled): 1.0 ± 0.1% | Peak MetHgb (%) On Day 1 Male (Sprague-Dawley rats; 4 mg/kg/day inhaled): 1.0 ± 0.0% | Peak MetHgb (%) On Day 7 Female (Sprague-Dawley rats; 4 mg/kg/day inhaled): 1.3 ± 0.1% | Peak MetHgb (%) On Day 7 Male (Sprague-Dawley rats; 4 mg/kg/day inhaled): 1.0 ± 0.0% | Mortality (%) Female (Sprague-Dawley rats; 18 mg/kg/day inhaled): 0% | Mortality (%) Male (Sprague-Dawley rats; 18 mg/kg/day inhaled): 0% | Peak MetHgb (%) On Day 1 Female (Sprague-Dawley rats; 18 mg/kg/day inhaled): 4.5 ± 1.2% | Peak MetHgb (%) On Day 1 Male (Sprague-Dawley rats; 18 mg/kg/day inhaled): 3.4 ± 0.3% | Peak MetHgb (%) On Day 7 Female (Sprague-Dawley rats; 18 mg/kg/day inhaled): 3.8 ± 0.6% | Peak MetHgb (%) On Day 7 Male (Sprague-Dawley rats; 18 mg/kg/day inhaled): 2.3 ± 0.2% | Peak MetHgb (%) On Day 1 Female (Sprague-Dawley rats; 101 mg/kg/day inhaled): 50 ± 3.0% | Peak MetHgb (%) On Day 1 Male (Sprague-Dawley rats; 101 mg/kg/day inhaled): 41 ± 3.3% | Mortality (%) Female (Sprague-Dawley rats; [8]): 30% | Mortality (%) Male (Sprague-Dawley rats; [8]): 0% | % of particles < 3 μm (Sprague-Dawley rats; Group 2 Low Dose): 97.6% | MMAD (Sprague-Dawley rats; Group 2 Low Dose): 1.0 μm | % of particles < 3 μm (Sprague-Dawley rats; Group 3 Mid Dose): 87.6% | MMAD (Sprague-Dawley rats; Group 3 Mid Dose): 1.4 μm | % of particles < 3 μm (Sprague-Dawley rats; Group 4 High Dose): 78.5% | MMAD (Sprague-Dawley rats; Group 4 High Dose): 1.7 μm | Peak MetHgb (%) On Day 7 Female (Sprague-Dawley rats; [9]): 36 ± 3.0 % | Peak MetHgb (%) On Day 7 Male (Sprague-Dawley rats; [9]): 16 ± 4.7 % | Mortality (%) Female (beagle dogs; 2 mg/kg/day inhaled): 0% | Mortality (%) Male (beagle dogs; 2 mg/kg/day inhaled): 0% | Peak MetHgb (%) On Day 1 Female (beagle dogs; 2 mg/kg/day inhaled): 0.35 ± 0.4% | Peak MetHgb (%) On Day 1 Male (beagle dogs; 2 mg/kg/day inhaled): 0.2 ± 0.1% | Peak MetHgb (%) On Day 7 Female (beagle dogs; 2 mg/kg/day inhaled): 0.2 ± 0.0% | Peak MetHgb (%) On Day 7 Male (beagle dogs; 2 mg/kg/day inhaled): 0.2 ± 0.0% | Mortality (%) Female (beagle dogs; 12 mg/kg/day inhaled): 0% | Mortality (%) Male (beagle dogs; 12 mg/kg/day inhaled): 0% | Peak MetHgb (%) On Day 1 Female (beagle dogs; 12 mg/kg/day inhaled): 3.4 ± 1.3% | Peak MetHgb (%) On Day 1 Male (beagle dogs; 12 mg/kg/day inhaled): 2.6 ± 0.5% | Peak MetHgb (%) On Day 7 Female (beagle dogs; 12 mg/kg/day inhaled): 1.6 ± 0.2% | Peak MetHgb (%) On Day 7 Male (beagle dogs; 12 mg/kg/day inhaled): 2.1 ± 0.5% | Mortality (%) Female (beagle dogs; 54 mg/kg/day inhaled): 0% | Mortality (%) Male (beagle dogs; 54 mg/kg/day inhaled): 0% | Peak MetHgb (%) On Day 1 Female (beagle dogs; 54 mg/kg/day inhaled): 19 ± 0.5% | Peak MetHgb (%) On Day 1 Male (beagle dogs; 54 mg/kg/day inhaled): 16 ± 5.2% | Peak MetHgb (%) On Day 7 Female (beagle dogs; 54 mg/kg/day inhaled): 17 ± 2.6% | Peak MetHgb (%) On Day 7 Male (beagle dogs; 54 mg/kg/day inhaled): 16 ± 3.2% | % of particles < 3 μm (beagle dogs; Group 2 Low Dose): 86.2% | MMAD (beagle dogs; Group 2 Low Dose): 1.2 μm | % of particles < 3 μm (beagle dogs; Group 3 Mid Dose): 73.9% | MMAD (beagle dogs; Group 3 Mid Dose): 1.7 μm | % of particles < 3 μm (beagle dogs; Group 4 High Dose): 73.3% | MMAD (beagle dogs; Group 4 High Dose): 1.9 μm | AUC (in vivo [2]; [10]): 0.0158 µg·h/mL | Cmax (in vivo [2]; [10]): 1.8 µM | Tmax (in vivo [2]; [10]): 5 min | half-life (in vivo [2]; [10]): 4 min | AUC (in vivo [2]; [11]): 0.292 µg·h/mL | Cmax (in vivo [2]; [11]): 25.8 µM | Tmax (in vivo [2]; [11]): 5 min | half-life (in vivo [2]; [11]): 10 min | Cmax (in vivo [2]; other: intratracheal insufflation of dry powder, 10 ug/kg): ~0.2 µM | RV:LV + S ([3]; dry powder 1 μg/kg intratracheal): 0.363 ± 0.029 | RV:LV + S ([3]; dry powder 10 μg/kg intratracheal): 0.328 ± 0.025 | decrease of RV:LV+S ([3]; high dose (10 μg/kg), p<0.05): up to 48% | well tolerated doses [4]: less than or equal to 125 mg | AUC (in vivo [5]; [12]): 4.27 µg·h/mL | AUC (in vivo [5]; [13]): 2.82 µg·h/mL | Cmax (in vivo [5]; [12]): 172 µM | Cmax (in vivo [5]; [13]): 164 µM | half-life (in vivo [5]; [12]): 19 min | half-life (in vivo [5]; [13]): 10 min | Tmax (in vivo [5]; [12]): 5 min | Tmax (in vivo [5]; [13]): 15 min | AUC (in vivo [5]; iv, IV (10 mg/kg)): 8.12 µg·h/mL | Cmax (in vivo [5]; iv, IV (10 mg/kg)): 312 µM | half-life (in vivo [5]; iv, IV (10 mg/kg)): 20 min | Tmax (in vivo [5]; iv, IV (10 mg/kg)): 5 min | NO in expired air, peak ([6]; after 20 minutes inhalation): approximately 15 ppb | reduction in hypoxia-induced pulmonary hypertension compared with saline nebulization ([6]; newborn lambs, inhaled nitrite 15 mg/minute): approximately 65% | minimal effective dose ([6]; newborn lambs): 1.5 mg/min | time reduction in PAP was maintained after cessation of inhalation ([6]; newborn lambs): at least 1 hour | plasma nitrite, extrapolated [7]: ~0.1 µM
